# Legend:
# Particle size analysis = conditions: for particle size distribution at 90%: 90% of particles below this size
# [1] = Accelerated stability test, sealed containers incubated at 50° C.; type: physicochemical; conditions: sealed container
# Experimental: For extrapolating potential storage stability beyond one year, an accelerated storage stability test was conducted. In this test, crystalline TGS of small and large mean particle size was incubated at 50° C. in sealed containers. Percent assay and pH were tested after each 24 hours for five successive days. […] A three days' stability in accelerated stability test is extrapolated by Catani et al (2005) to 8 years of storage stability at ambient temperature.
# All the three samples were taken in sealed containers and were incubated at 50° C. […]
# [2] = Analysis against JECFA specifications: solubility; type: physicochemical; conditions: in ethyl acetate
# [3] = Stability testing as per ICH Guideline Q1A(R2), storage stability; type: physicochemical; conditions: for Appearance: storage condition not given
# Excerpt: Stability testing was done as per ICH Harmonised Tripaertite Guideline Stability Testing of New drug substances and Products Q1A(R2) issued by International Conference on Hamonization of technical requirements for registration of pharmaceuticals for human use and recommended for adoption at Step 4 of the ICH Process on 6 Feb.
# Details are given on table nos 1 to 4 given in the following: […]
# [4] = Fourth day, listed as Amorphous TGS
smiles,measurement,setting,value
OC[C@H]1O[C@H](O[C@]2(CCl)O[C@H](CCl)[C@@H](O)[C@@H]2O)[C@H](O)[C@@H](O)[C@H]1Cl [1′-6′-Dichloro-1′-6′-DIDEOXY-β-Fructofuranasyl-4-chloro-4-deoxy-galactopyranoside],particle size distribution at 90%,Particle size analysis; listed as Example 5,below 240 microns
same,mean particle size,Particle size analysis; listed as Crystalline TGS (big particle size),about 35 micron
same,Assay (%),[1]; Fifth day,96.86%
same,PH,[1]; Fifth day,7.00
same,Assay (%),[1]; First day,98.73%
same,PH,[1]; First day,7.08
same,Assay (%),[1]; Fourth day,97.06%
same,PH,[1]; Fourth day,7.00
same,Assay (%),[1]; Second day,98.21%
same,PH,[1]; Second day,7.08
same,Assay (%),[1]; Sixth day,96.72%
same,PH,[1]; Sixth day,7.02
same,Assay (%),[1]; Third day,97.53%
same,PH,[1]; Third day,7.02
same,decline in percent assay,[1]; by fifth day,1.87%
same,decline in percent assay,[1]; by sixth day,2.01%
same,decline in percent assay,"[1]; in first three days, listed as large particle size crystalline TGS",1.2%
same,difference in pH,[1]; over the test period,not substantial
"OC[C@H]1O[C@H](O[C@]2(CCl)O[C@H](CCl)[C@@H](O)[C@@H]2O)[C@H](O)[C@@H](O)[C@H]1Cl [Amorphous TGS small particle size, 1′-6′-Dichloro-1′-6′-DIDEOXY-β-Fructofuranasyl-4-chloro-4-deoxy-galactopyranoside]",Solubility,[2],water. Slightly
same,Assay,"[3]; 25° C. ± 2° C. 60% RH ± 5% RH, 1st month",99.34%
same,Assay,"[3]; 25° C. ± 2° C. 60% RH ± 5% RH, 2nd month",99.36%
same,Assay,"[3]; 25° C. ± 2° C. 60% RH ± 5% RH, 3rd month",99.32%
same,Assay,"[3]; 25° C. ± 2° C. 60% RH ± 5% RH, 4th month",99.36%
same,Assay,"[3]; 25° C. ± 2° C. 60% RH ± 5% RH, 5th month",99.28%
same,Assay,"[3]; 25° C. ± 2° C. 60% RH ± 5% RH, 6th month",99.23%
same,Assay,"[3]; 25° C. ± 2° C. 60% RH ± 5% RH, 12th month",99.22%
same,Assay,"[3]; 25° C. ± 2° C. 60% RH ± 5% RH, 24th month",99.14%
same,Assay,"[3]; 30° C. ± 2° C. 65% RH ± 5% RH, 1st month",99.84%
same,Assay,"[3]; 30° C. ± 2° C. 65% RH ± 5% RH, 2nd month",99.84%
same,Assay,"[3]; 30° C. ± 2° C. 65% RH ± 5% RH, 3rd month",99.62%
same,Assay,"[3]; 30° C. ± 2° C. 65% RH ± 5% RH, 4th month",99.65%
same,Assay,"[3]; 30° C. ± 2° C. 65% RH ± 5% RH, 5th month",99.58%
same,Assay,"[3]; 30° C. ± 2° C. 65% RH ± 5% RH, 6th month",99.53%
same,Assay,"[3]; 30° C. ± 2° C. 65% RH ± 5% RH, 12th month",99.62%
same,Assay,"[3]; 30° C. ± 2° C. 65% RH ± 5% RH, 24th month",99.32%
same,Assay,"[3]; 40° C. ± 2° C. 75% RH ± 5% RH, 1st month",99.68%
same,Assay,"[3]; 40° C. ± 2° C. 75% RH ± 5% RH, 2nd month",99.65%
same,Assay,"[3]; 40° C. ± 2° C. 75% RH ± 5% RH, 3rd month",99.67%
same,Assay,"[3]; 40° C. ± 2° C. 75% RH ± 5% RH, 4th month",99.58%
same,Assay,"[3]; 40° C. ± 2° C. 75% RH ± 5% RH, 5th month",99.52%
same,Assay,"[3]; 40° C. ± 2° C. 75% RH ± 5% RH, 6th month",99.46%
same,Assay,"[3]; 40° C. ± 2° C. 75% RH ± 5% RH, 12th month",99.52%
same,Assay,"[3]; 40° C. ± 2° C. 75% RH ± 5% RH, 24th month",99.12%
same,Assay,[3]; INITIAL (printed in the 40° C. ± 2° C. 75% RH ± 5% RH column),99.70%
same,stability in storage,[3]; storage,stable for at least one year in storage
same,Appearance,[3]; 1st month,Normal
same,Appearance,[3]; 2nd month,Normal
same,Appearance,[3]; 3rd month,Normal
same,Appearance,[3]; 4th month,Normal
same,Appearance,[3]; 5th month,Normal
same,Appearance,[3]; 6th month,Normal
same,Appearance,[3]; 12th month,Normal
same,Appearance,[3]; 24th month,Normal
same,Appearance,[3]; INITIAL,Normal
same,stability compared to the crystalline form,[3]; table 4,much more stable
same,particle size distribution at 90%,Particle size analysis; listed as Example 3,below 6 microns
same,particle size distribution at 90%,Particle size analysis; listed as amorphous product,less than 6 microns
same,largest particle size,Particle size analysis; listed as amorphous form,≤ 14 microns
same,PH,[1]; Fifth day,7.06
same,Assay (%),"[1]; Fifth day, listed as Amorphous TGS",98.19%
same,PH,[1]; First day,7.03
same,Assay (%),"[1]; First day, listed as Amorphous TGS",98.21%
same,Assay (%),[1]; [4],98.18%
same,PH,[1]; [4],7.02
same,PH,[1]; Second day,7.03
same,Assay (%),"[1]; Second day, listed as Amorphous TGS",98.20%
same,PH,[1]; Sixth day,7.05
same,Assay (%),"[1]; Sixth day, listed as Amorphous TGS",98.17%
same,Assay (%),"[1]; Third day, listed as Amorphous TGS",98.24%
same,decline in percent assay,"[1]; in first three days, listed as Amorphous form",0.08%
same,decline in percent assay,"[1]; in first three days, listed as amorphous form",0.08%
same,decline in pH,[1]; over three days,0.08 units
"OC[C@H]1O[C@H](O[C@]2(CCl)O[C@H](CCl)[C@@H](O)[C@@H]2O)[C@H](O)[C@@H](O)[C@H]1Cl [Example 4, 1′-6′-Dichloro-1′-6′-DIDEOXY-β-Fructofuranasyl-4-chloro-4-deoxy-galactopyranoside]",particle size distribution at 90%,Particle size analysis,< 95 microns
"OC[C@H]1O[C@H](O[C@]2(CCl)O[C@H](CCl)[C@@H](O)[C@@H]2O)[C@H](O)[C@@H](O)[C@H]1Cl [Example 6, 1′-6′-Dichloro-1′-6′-DIDEOXY-β-Fructofuranasyl-4-chloro-4-deoxy-galactopyranoside]",particle size distribution at 90%,Particle size analysis,below 12 microns

# Reference: patent US20090208747A1, “Novel Crystalline Methods and Novel Crystalline and Amorphous forms of Halogenated Sugars” (V.B. MEDICARE PVT. LTD, priority 2006, published 2009)
